Literature values, collected in patent US20260335281A1, “PHARMACEUTICAL COMPOSITION COMPRISING CENTANAFADINE” (OTSUKA PHARMACEUTICAL CO., LTD., priority 2022, published 2026).

How the values were obtained:
[1] = tested on: serotonin (5-HT) reuptake
[2] = tested on: norepinephrine (NE) reuptake
[3] = fold less than against norepinephrine reuptake, background statement

c1ccc2cc([C@]34CNC[C@H]3C4)ccc2c1 [(1R,5S)-1-(naphthalen-2-yl)-3-azabicyclo[3.1.0]hexane]
effectiveness against dopamine (DA) reuptake, fold less (dopamine (DA) reuptake; [3]): 6 fold | inhibition of dopamine reuptake (dopamine (DA) reuptake; in words, PL 1 (JP 5184354 B)): can inhibit the reuptake | effectiveness against serotonin (5-HT) reuptake, fold less [1, 3]: 14 fold | inhibition of serotonin reuptake ([1]; in words, PL 1 (JP 5184354 B)): can inhibit the reuptake | effectiveness against norepinephrine (NE) reuptake ([2]; compared with DA and 5-HT reuptake, background statement): most effective | inhibition of norepinephrine reuptake ([2]; in words, PL 1 (JP 5184354 B)): can inhibit the reuptake
